{
  "source": "patent US10189863B2",
  "about": "“5,6-dihydro-4H-benzo[b]thieno-[2,3-d]azepine derivatives” (PULMOCIDE LIMITED, priority 2014, dated 2019)",
  "key": {"HEp2 cells": {"tested_on": "HEp2 cells", "experiment": "Cell viability: resazurin assay", "format": "cell-based, human", "settings": "5 days", "outline": "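Viability read-out: resazurin fluorescence (ex 545, em 590 nm) after 6 h, following 5-day compound incubation of HEp2 cells (37 °C, 5% CO2, 5% FBS, 0.5% DMSO final). Loss expressed as percentage of vehicle, negative if viability rose; CC50 derived from concentration-response curve where appropriate.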"}, "hRSV/A/Long [1]": {"tested_on": "hRSV/A/Long", "experiment": "RSV infection in cotton rats: virus titre in lung (plaque assay)", "format": "in vivo, Sigmodon hispidus cotton rats", "settings": "intranasal", "procedure": "RSV Infection in Cotton Rats\nMale Sigmodon hispidus cotton rats between 6 and 8 weeks of age were infected with hRSV/A/Long (ATCC, Manassas, Va.; 10^5 pfu) in a volume of 0.1 mL of sucrose stabilizing media. Test compounds were dissolved in 100% DMSO (at 3.3, 10, 33 and 100 mg/mL), then diluted at 1:10 in isotonic saline to achieve 10% DMSO in all treatments. Formulations were then sonicated to produce suspensions. The resulting suspensions were administered intranasally (50 μL) by pipette 4 hr before infection (on day 0), and then on days 1, 2 and 3 post infection. Four days after RSV challenge, the animals were euthanised and the lungs were removed. The left lobe was used for viral titration via plaque assay and the lingular lobe for RSV/A/Long NS-1 qRT-PCR and cytokine qRT-PCR.\nThe supernatant of lung homogenates were diluted 1:10 and 1:100 in Eagle (E)-MEM. Confluent HEp2 monolayers in 24-well plates were infected in duplicate (50 μL of sample per well) starting with undiluted (neat) samples followed by diluted homogenates. After incubation for 1 hr (37° C./5% CO2) wells were overlaid with 0.75% methylcellulose medium and plates replaced in the 37° C. incubator. After incubation (for 4 days), the overlay was removed, the cells fixed with 0.1% crystal violet stain (for 1 hr) and then rinsed and air-dried. Plaques were counted and viral titers were expressed as plaque forming units per gram (pfu·g^−1) of tissue."}, "hRSV/A/Long [2]": {"tested_on": "hRSV/A/Long", "experiment": "RSV infection in cotton rats: virus titre in lung (plaque assay)", "format": "in vivo, Sigmodon hispidus cotton rats", "settings": "for Virus titre in lung, Geometric mean: cotton rats, intranasal, day 4"}, "[3]": {"settings": "Drug Conc 10 mg/mL, day 4, LOQ 2.3"}},
  "data": [
    {"smiles": "Cc1cnc(N2CC3(CCOCC3)C2)c(C(=O)Nc2ccc(C(=O)N3CCc4cc(C(=O)Nc5c(C)cccc5F)sc4-c4ccccc43)cc2)c1", "note": "[Example 5, N-(2-Fluoro-6-methylphenyl)-6-(4-(5-methyl-2-(7-oxa-2-azaspiro[3.5]nonan-2-yl)nicotinamido)benzoyl)-5,6-dihydro-4H-benzo[b]thieno[2,3-d]azepine-2-carboxamide]", "values": [
      {"measurement": "CC50", "setting": "HEp2 cells", "result": "> 14", "unit": "µM"},
      {"measurement": "Virus titre in lung, Geometric mean", "setting": "hRSV/A/Long [1]; Drug Conc 0.33 mg/mL, day 4", "result": "4.7 log, PFU/lung"},
      {"measurement": "Virus titre in lung, Median", "setting": "hRSV/A/Long [1]; Drug Conc 0.33 mg/mL, day 4", "result": "4.7 log, PFU/lung"},
      {"measurement": "Virus titre in lung, Median", "setting": "hRSV/A/Long [1]; Drug Conc 1.0 mg/mL, day 4", "result": "4.5 log, PFU/lung"},
      {"measurement": "Virus titre in lung, Median", "setting": "hRSV/A/Long [1]; Drug Conc 3.3 mg/mL, day 4, LOQ 2.3", "result": "<2.3^2 log, PFU/lung"},
      {"measurement": "Virus titre in lung, Geometric mean", "setting": "hRSV/A/Long [1]; [3]", "result": "<2.3^2 log, PFU/lung"},
      {"measurement": "Virus titre in lung, Median", "setting": "hRSV/A/Long [1]; [3]", "result": "<2.3^2 log, PFU/lung"},
      {"measurement": "Effect on virus titre in the lungs (in words)", "setting": "hRSV/A/Long [2]; RSV A2 infected cotton rats", "result": "completely inhibited virus titre"},
      {"measurement": "Virus titre in lung, Geometric mean", "setting": "hRSV/A/Long [2]; Drug Conc 1.0 mg/mL", "result": "4.5 log, PFU/lung"},
      {"measurement": "Virus titre in lung, Geometric mean", "setting": "hRSV/A/Long [2]; Drug Conc 3.3 mg/mL, LOQ 2.3", "result": "<2.3^2 log, PFU/lung"},
      {"measurement": "Effect on virus titre in lung homogenates (in words)", "setting": "hRSV/A/Long [2]; hRSV/A/Long infected cotton rats on day4", "result": "potent dose-dependent inhibition of virus titre"}
    ]}
  ]
}
